The NIST ThermoML archive (doi:10.1021/je700260f)
Numbers after ± are expanded uncertainties.

Conditions: Liquid, Vibrating tube method

## FC(C(F)(F)F)C(F)(F)F [1,1,1,2,3,3,3-heptafluoropropane]
323.14 K, 32595 kPa
  mass density: 1474.2 ± 1.7 kg/m3
323.14 K, 32625 kPa
  mass density: 1474.2 ± 1.7 kg/m3
323.14 K, 32718 kPa
  mass density: 1474.5 ± 1.7 kg/m3
323.14 K, 32751 kPa
  mass density: 1474.7 ± 1.7 kg/m3
323.14 K, 32788 kPa
  mass density: 1474.8 ± 1.7 kg/m3
323.14 K, 32825 kPa
  mass density: 1475.1 ± 1.7 kg/m3
323.14 K, 32856 kPa
  mass density: 1475.1 ± 1.7 kg/m3
323.14 K, 32888 kPa
  mass density: 1475.2 ± 1.7 kg/m3
323.14 K, 32921 kPa
  mass density: 1475.3 ± 1.7 kg/m3
323.14 K, 32953 kPa
  mass density: 1475.5 ± 1.7 kg/m3
323.14 K, 32985 kPa
  mass density: 1475.4 ± 1.7 kg/m3
323.14 K, 33019 kPa
  mass density: 1475.7 ± 1.7 kg/m3
323.14 K, 33051 kPa
  mass density: 1475.7 ± 1.7 kg/m3
323.14 K, 33084 kPa
  mass density: 1475.8 ± 1.7 kg/m3
323.14 K, 33112 kPa
  mass density: 1476.1 ± 1.7 kg/m3
323.14 K, 33140 kPa
  mass density: 1476.1 ± 1.7 kg/m3
323.14 K, 33174 kPa
  mass density: 1476.3 ± 1.7 kg/m3
323.14 K, 33204 kPa
  mass density: 1476.4 ± 1.7 kg/m3
323.14 K, 33237 kPa
  mass density: 1476.4 ± 1.7 kg/m3
323.14 K, 33283 kPa
  mass density: 1476.6 ± 1.7 kg/m3
323.14 K, 33320 kPa
  mass density: 1476.7 ± 1.7 kg/m3
323.14 K, 33348 kPa
  mass density: 1476.8 ± 1.7 kg/m3
323.14 K, 33380 kPa
  mass density: 1477 ± 1.7 kg/m3
323.14 K, 33409 kPa
  mass density: 1477.2 ± 1.7 kg/m3
323.14 K, 33451 kPa
  mass density: 1477.2 ± 1.7 kg/m3
323.14 K, 33480 kPa
  mass density: 1477.5 ± 1.7 kg/m3
323.14 K, 33527 kPa
  mass density: 1477.5 ± 1.7 kg/m3
323.14 K, 33556 kPa
  mass density: 1477.6 ± 1.7 kg/m3
323.14 K, 33594 kPa
  mass density: 1477.8 ± 1.7 kg/m3
323.14 K, 33624 kPa
  mass density: 1477.9 ± 1.7 kg/m3
323.14 K, 33659 kPa
  mass density: 1477.9 ± 1.7 kg/m3
323.14 K, 33689 kPa
  mass density: 1477.9 ± 1.7 kg/m3
323.14 K, 33733 kPa
  mass density: 1478.3 ± 1.7 kg/m3
323.14 K, 33772 kPa
  mass density: 1478.3 ± 1.7 kg/m3
323.14 K, 33801 kPa
  mass density: 1478.4 ± 1.7 kg/m3
323.14 K, 33844 kPa
  mass density: 1478.5 ± 1.7 kg/m3
323.14 K, 33873 kPa
  mass density: 1478.6 ± 1.7 kg/m3
323.14 K, 33912 kPa
  mass density: 1478.8 ± 1.7 kg/m3
323.14 K, 33947 kPa
  mass density: 1479 ± 1.7 kg/m3
323.14 K, 33988 kPa
  mass density: 1479.1 ± 1.7 kg/m3
323.14 K, 34019 kPa
  mass density: 1479.2 ± 1.7 kg/m3
323.14 K, 34056 kPa
  mass density: 1479.3 ± 1.7 kg/m3
323.14 K, 34088 kPa
  mass density: 1479.4 ± 1.7 kg/m3
323.14 K, 34126 kPa
  mass density: 1479.7 ± 1.7 kg/m3
323.14 K, 34164 kPa
  mass density: 1479.7 ± 1.7 kg/m3
323.14 K, 34203 kPa
  mass density: 1479.9 ± 1.7 kg/m3
323.14 K, 34254 kPa
  mass density: 1480 ± 1.7 kg/m3
323.14 K, 34287 kPa
  mass density: 1480.1 ± 1.7 kg/m3
323.14 K, 34318 kPa
  mass density: 1480.4 ± 1.7 kg/m3
323.14 K, 34333 kPa
  mass density: 1480.4 ± 1.7 kg/m3
323.14 K, 34347 kPa
  mass density: 1480.4 ± 1.7 kg/m3
323.14 K, 34355 kPa
  mass density: 1480.4 ± 1.7 kg/m3
323.14 K, 34365 kPa
  mass density: 1480.4 ± 1.7 kg/m3
323.14 K, 34376 kPa
  mass density: 1480.5 ± 1.7 kg/m3
323.14 K, 34382 kPa
  mass density: 1480.5 ± 1.7 kg/m3
323.15 K, 2690 kPa
  mass density: 1295.1 ± 1.5 kg/m3
323.15 K, 2710 kPa
  mass density: 1295.4 ± 1.5 kg/m3
323.15 K, 2730 kPa
  mass density: 1295.6 ± 1.5 kg/m3
323.15 K, 2750 kPa
  mass density: 1295.9 ± 1.5 kg/m3
323.15 K, 2770 kPa
  mass density: 1296.1 ± 1.5 kg/m3
323.15 K, 2790 kPa
  mass density: 1296.3 ± 1.5 kg/m3
323.15 K, 2810 kPa
  mass density: 1296.6 ± 1.5 kg/m3
323.15 K, 2860 kPa
  mass density: 1297.2 ± 1.5 kg/m3
323.15 K, 3610 kPa
  mass density: 1305.8 ± 1.5 kg/m3
323.15 K, 5700 kPa
  mass density: 1326.8 ± 1.5 kg/m3
323.15 K, 5730 kPa
  mass density: 1327.1 ± 1.5 kg/m3
323.15 K, 5750 kPa
  mass density: 1327.2 ± 1.5 kg/m3
323.15 K, 5780 kPa
  mass density: 1327.6 ± 1.5 kg/m3
323.15 K, 5810 kPa
  mass density: 1327.8 ± 1.5 kg/m3
323.15 K, 5830 kPa
  mass density: 1328.1 ± 1.5 kg/m3
323.15 K, 5860 kPa
  mass density: 1328.3 ± 1.5 kg/m3
323.15 K, 5890 kPa
  mass density: 1328.7 ± 1.5 kg/m3
323.15 K, 5920 kPa
  mass density: 1329.1 ± 1.5 kg/m3
323.15 K, 5940 kPa
  mass density: 1329 ± 1.5 kg/m3
323.15 K, 7941 kPa
  mass density: 1346.2 ± 1.5 kg/m3
323.15 K, 7982 kPa
  mass density: 1346.7 ± 1.5 kg/m3
323.15 K, 8005 kPa
  mass density: 1346.8 ± 1.5 kg/m3
323.15 K, 8337 kPa
  mass density: 1349.4 ± 1.5 kg/m3
323.15 K, 8351 kPa
  mass density: 1349.6 ± 1.5 kg/m3
323.15 K, 8369 kPa
  mass density: 1349.8 ± 1.5 kg/m3
323.15 K, 8474 kPa
  mass density: 1350.5 ± 1.5 kg/m3
323.15 K, 8495 kPa
  mass density: 1350.7 ± 1.5 kg/m3
323.15 K, 8516 kPa
  mass density: 1350.8 ± 1.5 kg/m3
323.15 K, 8532 kPa
  mass density: 1351 ± 1.5 kg/m3
323.15 K, 8553 kPa
  mass density: 1351.1 ± 1.5 kg/m3
323.15 K, 8569 kPa
  mass density: 1351.3 ± 1.5 kg/m3
323.15 K, 8597 kPa
  mass density: 1351.5 ± 1.5 kg/m3
323.15 K, 8616 kPa
  mass density: 1351.8 ± 1.5 kg/m3
323.15 K, 8637 kPa
  mass density: 1351.8 ± 1.5 kg/m3
323.15 K, 8653 kPa
  mass density: 1351.9 ± 1.5 kg/m3
323.15 K, 8674 kPa
  mass density: 1352.2 ± 1.5 kg/m3
323.15 K, 8690 kPa
  mass density: 1352.3 ± 1.5 kg/m3
323.15 K, 8713 kPa
  mass density: 1352.5 ± 1.5 kg/m3
323.15 K, 8731 kPa
  mass density: 1352.6 ± 1.5 kg/m3
323.15 K, 8753 kPa
  mass density: 1352.6 ± 1.5 kg/m3
323.15 K, 8776 kPa
  mass density: 1352.9 ± 1.5 kg/m3
323.15 K, 8792 kPa
  mass density: 1353.1 ± 1.5 kg/m3
323.15 K, 8817 kPa
  mass density: 1353.1 ± 1.5 kg/m3
323.15 K, 8836 kPa
  mass density: 1353.4 ± 1.5 kg/m3
323.15 K, 8858 kPa
  mass density: 1353.5 ± 1.5 kg/m3
323.15 K, 8877 kPa
  mass density: 1353.6 ± 1.5 kg/m3
323.15 K, 8898 kPa
  mass density: 1353.8 ± 1.5 kg/m3
323.15 K, 9724 kPa
  mass density: 1360 ± 1.5 kg/m3
